Laboratory results taken from a melting point compilation (Tetko et al.; mined from patent text by program, amines drawn as free bases though some values may be those of a salt).

First: CCCCCCCCCCCCSc1ccc2c(c1)C(=O)c1c(c(Oc3ccccc3)c3ccccc3c1Oc1ccccc1)C2=O
Second: COc1ccc(CN(C)CCCSc2ccc(NC(=O)c3cccc4c(=O)c5cccc(SC)c5[nH]c34)cc2)cc1OC
The melting point of the first is higher: 165 to 168 °C for the first, 142 °C for the second.

First: COC(OC)c1cc(-n2c(=O)cc(C(F)(F)F)n(C)c2=O)ccc1Cl
Second: Cc1c(Oc2ncc(C(F)(F)F)cc2Cl)nn(C(=O)NC(C)C)c1C
The melting point of the first is higher: 92 to 94 °C for the first, 78 to 80 °C for the second.

First: O=c1n(-c2cccc(Cl)c2)c(=O)n(SC(Cl)(Cl)Cl)n1SC(Cl)(Cl)Cl
Second: Cc1ncn(-c2cc(C(Cl)(Cl)Cl)c3cc(C(Cl)(Cl)Cl)ccc3n2)n1
The melting point of the first is lower: 153 °C for the first, 169 to 170 °C for the second.

Compared with CC(=O)Oc1c(C)cc(Oc2ccc3nc(CO)n(C)c3n2)c(C)c1C, COc1ccc(-c2c(CO)cc(OC)c(OC)c2OC)c(CO)c1OS(C)(=O)=O is lower in melting point: 179 to 180 °C for the first, 124 to 126 °C for the second.

Compared with CC(C)(COc1ccc(CNC(=O)C2Cc3ccccc3N2S(=O)(=O)c2ccc(-c3cccc(C(F)(F)F)c3)cc2)cc1)C(=O)O (centres undefined), CC(=O)Nc1ccc(S(=O)(=O)Nn2cc(-c3ccccc3)c3ccccc32)cc1 is higher in melting point: 95 to 105 °C for the first, 190 to 193 °C for the second.

First: O=C(NC(CO)(CO)CO)c1ccc(C(=O)NC(CO)(CO)CO)cc1
Second: CCCc1nc(N)nc(N)c1N1CCN(c2ccc(C(=O)N[C@@H](CCC(=O)OCC)C(=O)OCC)cc2)CC1
The melting point of the first is higher: 188 to 190 °C for the first, 175 to 180 °C for the second.

Compared with Cn1nccc1C(=O)Nc1cc(Oc2ccc3nc(NC(=O)C4CC4)cn3n2)ccc1F, CC(=O)OCc1cn2c(n1)CN=C(c1ccccc1F)c1cc(Cl)ccc1-2 is lower in melting point: 253 °C for the first, 134 to 136 °C for the second.

First: O=C(O)c1cccc(-c2ccc3ncn(Cc4ccc(Cl)cc4Cl)c3n2)c1
Second: COC(=O)c1cccc(-c2cccc(Oc3cc(Cl)cc(Cl)c3)n2)c1
The melting point of the first is higher: 258 to 260 °C for the first, 125 to 126 °C for the second.

Compared with CCNC(=O)c1ccc(N2CCNCC2)c(Cl)c1, CN1CCN(c2ccc(C(=O)O)cc2S(=O)(=O)Nc2ccccc2)CC1 is higher in melting point: 117 to 119 °C for the first, 252 to 253 °C for the second.

First: Cc1nc2c(N)nc3cnccc3c2n1CC(C)C
Second: CCOC(=O)c1cn(-c2ccncc2F)c2nc(Cl)c(F)cc2c1=O
The melting point of the first is higher: 322 to 324 °C for the first, 226 °C for the second.

Compared with Nc1ccc(Cc2ccccn2)cc1[N+](=O)[O-], O=c1cc(O)c2cccnc2n1-c1ccccc1 is higher in melting point: 128 to 132 °C for the first, 311 to 313 °C for the second.

First: O=C1c2ccc(Cl)cc2C(O)N1c1ccc2ccc(Cl)nc2n1 (centres undefined)
Second: CCONC(=O)c1c(Cl)ccc2cc(Cl)cnc12
The melting point of the first is higher: 220 to 230 °C for the first, 140 °C for the second.

First: CCOC(=O)c1ccc(OCC2CCN(C(=O)OC(C)(C)C)CC2)c(OC)c1
Second: CCO/C(=C\c1ccc(OCCc2ccc(OCC)cc2)c(OC)c1)C(=O)O
The melting point of the first is lower: 81 to 83 °C for the first, 121 °C for the second.

First: c1csc(-c2cnc(-c3cccs3)s2)c1
Second: Nc1ncc(-c2ccc(=O)[nH]n2)c(-c2cccs2)n1
The melting point of the first is lower: 93 to 93.8 °C for the first, 265 °C for the second.

First: COc1nsc(Cl)c1Cl
Second: N#Cc1c(Cl)ccnc1Cl
The melting point of the first is lower: 46 to 48 °C for the first, 107 to 109 °C for the second.

First: CCc1cc(OCc2ccc(-c3ccccc3-c3nnn(C(c4ccccc4)(c4ccccc4)c4ccccc4)n3)cc2)c2nc(OC)ccc2n1
Second: COc1ccc2cc(Nc3ccc(OCc4ccccc4)cc3)ccc2c1
The melting point of the first is lower: 145 to 148 °C for the first, 155 to 157 °C for the second.

Compared with COC(=O)C(=O)Cc1nc([N+](=O)[O-])cn1C, CCOC(=O)C1=C(C)N=C(NC)N(C(=O)OCC)C1c1cccc([N+](=O)[O-])c1 (centres undefined) is lower in melting point: 186 °C for the first, 112 to 114 °C for the second.

First: FC(F)(F)c1ccc(-c2ccc(Cl)nn2)cc1
Second: O=C1CCC(c2ccc(N=Cc3ccc(C(F)(F)F)cc3)cc2)=NN1
The melting point of the first is lower: 186 to 188 °C for the first, 245 to 247 °C for the second.

First: Cc1cccc(C(C)(C)C)c1NC(=O)NCC1(c2ccccc2)CCCCC1
Second: CCc1ccc(NC(=O)NCC2(c3ccccc3)CCCCC2)cc1
The melting point of the first is higher: 196 to 197 °C for the first, 138 to 139 °C for the second.

Compared with CCCCCCCCCCCCCCCCC[C@@H](O)C[C@H]1OC(=O)[C@@H]1CCC, CCCCCCOc1ccc(-c2ncc(C#N)cn2)cc1 is higher in melting point: 84 to 85 °C for the first, 93.5 to 93.8 °C for the second.

First: O=C(SCCC(=O)N1C(c2cccs2)SC[C@H]1C(=O)O)c1ccccc1 (some centres undefined)
Second: CC(C)(C)OC(=O)CN1CC(c2cccs2)SCC(N)C1=O (centres undefined)
The melting point of the first is higher: 141 to 143 °C for the first, 81 to 82 °C for the second.

First: CN1CCN(c2nc3cccccc-3n2)CC1
Second: O=C1CCC(N2CCN(Cc3ccccc3)CC2)CC1
The melting point of the first is higher: 93 to 95 °C for the first, 83 to 85 °C for the second.

First: COC(=O)c1ccccc1C=Cc1ccc(Br)cc1
Second: O=Cc1cccc2cc(C(=O)OCc3ccccc3)[nH]c12
The melting point of the first is higher: 104 to 106 °C for the first, 62 °C for the second.

Compared with CC(C)N1CNS(=O)(=O)c2sc(Cl)cc21, CN(C)Cc1c[nH]c2ccc(Cl)cc12 is higher in melting point: 100 to 102 °C for the first, 127 to 130 °C for the second.

First: COc1ccc(C(=O)Nc2c(Cl)cncc2Cl)c2[nH]cnc12
Second: COC(=O)Nc1nc2cnc3ccccc3c2n1CC(C)(C)O
The melting point of the first is higher: 292 to 293 °C for the first, 225 °C for the second.

Compared with O=C(O)c1ccc(Oc2nn(Cc3ccccc3)c3ccccc23)o1, CCOC(=O)C(C)(C(=O)OCC)c1cc(=O)n(Cc2ccccc2)c2ccccc12 is lower in melting point: 162 to 165 °C for the first, 130 to 131 °C for the second.

First: O=C1c2ccccc2C(=O)N1Cc1nc(C2CC2)no1
Second: NCc1nc(-c2ncn3c2[C@@H]2CCN2C(=O)c2ccccc2-3)no1
The melting point of the first is lower: 115 °C for the first, 211 to 214 °C for the second.

First: Nc1ccc(S(=O)(=O)Nc2cc(N)cc(N)c2)cc1
Second: CON(c1ccc([N+](=O)[O-])cc1[N+](=O)[O-])S(=O)(=O)c1cccc(Cl)c1
The melting point of the first is higher: 188 to 190 °C for the first, 157 to 159 °C for the second.

Compared with C#Cc1cnn2c(C(F)F)cc(-c3ccc(Cl)c(C)c3)nc12, Fc1cc(-c2cc(C(F)(F)F)n3ncc(-c4cccnc4)c3n2)ccc1C(F)(F)F is higher in melting point: 143 °C for the first, 162 °C for the second.

Compared with CCOC(=O)c1c(SCOC)nc2cc(F)c(F)cc2c1O, CCOC(=O)C1=Cc2cc(-c3ccc(OC(F)(F)F)cc3)ccc2OCC1 is lower in melting point: 123 to 127 °C for the first, 59 to 63 °C for the second.

First: CC(C)c1cc(OCCCC(=O)OCc2ccccc2)cc2c1C(=O)N(COc1cc(C(F)(F)F)nn1-c1ccccc1)S2(=O)=O
Second: Cc1ccc(C(=O)NCC(O)CO)cc1-n1c(C)cc(OCc2ccccc2CNC(=O)Nc2cc(C(C)(C)C)nn2-c2cccc(OCCO)c2)c(Cl)c1=O (centres undefined)
The melting point of the first is lower: 99 to 101 °C for the first, 158 to 160 °C for the second.

First: Nc1nc(/C(=N/OCC(=O)N2CCCCC2)C(=O)O)cs1
Second: O=C(OCC1CC1)c1ncn2c1[C@@H]1CCCN1C(=O)c1c(I)cccc1-2
The melting point of the first is higher: 177 °C for the first, 164 to 165 °C for the second.

First: Cc1cc(C)c(N2CCCc3c2nn(C)c3C(=O)N2CCc3ccccc3C2)c(C)c1
Second: COc1cc2c(cc1-c1cccnc1)-c1c(Br)c3c(n1CC2)C(=O)N(C(C)(C)C)CCC3
The melting point of the first is lower: 80.3 to 87.7 °C for the first, 184 to 186 °C for the second.

First: CSc1nnc(-c2ccnc(Nc3cccc(C(F)(F)F)c3)c2)o1
Second: CC(C)(CC(O)(Cn1cc(Cl)c(=O)c2sccc21)C(F)(F)F)c1cc(-c2cncnc2)cc2c1OCC2 (centres undefined)
The melting point of the first is lower: 189 to 190 °C for the first, 218 to 219 °C for the second.

Compared with CC1=C(CO)C(C)(C)CCC1=NO, CC1(CC(=O)O)OCCC2=C1Cc1ccccc12 (centres undefined) is higher in melting point: 152 to 155 °C for the first, 179 to 180 °C for the second.

First: CC(CNC(=O)Cc1ccccc1)NCC(O)c1ccccc1 (centres undefined)
Second: N#CCCCN1CCOC(c2ccccc2)(c2ccccc2)CC1
The melting point of the first is higher: 96 to 98 °C for the first, 89 to 90 °C for the second.

First: C[C@]1(CN2CCC(OCCCc3ccc(Cl)cc3)CC2)Cn2cc([N+](=O)[O-])nc2O1
Second: COc1cc2c(-c3cc4c(Cl)ccnc4[nH]3)cn(CCN3CCC(CCO)CC3)c2cc1OC
The melting point of the first is lower: 88.8 to 91.9 °C for the first, 200 °C for the second.

Compared with N#Cc1c(Cl)cc(Cn2nnc(C(N)=O)c2N)cc1Cl, CCCCCn1ncc(C#N)c1N is lower in melting point: 238 to 240 °C for the first, 143 to 144 °C for the second.

First: OCCc1nccn1CCCc1ccc(OCc2coc(/C=C/c3c(F)cccc3F)n2)cc1
Second: Cc1oc2c(-c3ccc(F)cc3)c(-c3ccc(S(C)(=O)=O)cc3)nn2c1-c1cccs1
The melting point of the first is lower: 106 to 107 °C for the first, 240 to 241 °C for the second.

First: OC1(c2cc(F)cc(OCc3ccccc3)c2)CCOCC1
Second: CC(=O)Nc1cnc(-c2ccccc2)[nH]c1=O
The melting point of the first is lower: 112 °C for the first, 281 to 282 °C for the second.

Compared with NS(=O)(=O)c1ccc(-c2nn3c(-c4ccc(F)cc4)coc3c2-c2ccc(F)cc2)cc1, CC(C)c1ccc(-c2ccc(C3N=C(c4ccccc4Cl)CC3C#N)cc2)cc1 (centres undefined) is lower in melting point: 235 to 237 °C for the first, 127 to 128 °C for the second.

Compared with Cc1ccccc1CN(O)C(=O)C(C)(C)CCl, CC(C)(C)NC(=O)c1ccccc1O is lower in melting point: 112 to 113 °C for the first, 78 to 79.5 °C for the second.

First: COc1ccc(C(Cl)C(C)(C)[N+](=O)[O-])cc1OC (centres undefined)
Second: CC(C)(C(=O)O)c1ccc(Cl)c([N+](=O)[O-])c1
The melting point of the first is lower: 109 to 110 °C for the first, 157 °C for the second.

First: CCCc1cc(OC)ccc1-c1noc2cc(OC)ccc12
Second: COc1ccc2oc3ccc(C=O)cc3c(=O)c2c1
The melting point of the first is lower: 71 to 72 °C for the first, 167 to 169 °C for the second.

First: CCOC(=O)N1CCC(=C2c3cc(C)ccc3CCn3ccnc32)CC1
Second: CN1CCN(C2=NC(=O)C(=Cc3cccc(-c4ccc(O)c(C56CC7CC(CC(C7)C5)C6)c4)c3)S2)CC1
The melting point of the first is lower: 156 °C for the first, 291 to 294 °C for the second.

Compared with CC(C)c1ccc(S(=O)(=O)c2ccccc2)cc1S(=O)(=O)NC1CCN(C(=O)c2ccccc2)CC1, Cc1ccc(S(=O)(=O)N2C3=NC(C)(C)N(C)C(=O)N3c3ccccc32)cc1 is lower in melting point: 225 °C for the first, 147 to 149 °C for the second.

First: O=Cc1ccccc1-n1nnnc1CC(=O)C(F)(F)F
Second: CCCCn1cc(S(C)=O)c(=O)c2ccccc21 (centres undefined)
The melting point of the first is higher: 128 °C for the first, 103 to 105 °C for the second.

First: CCOc1ccc(C2(C(=O)O)CC(F)(F)C2(F)F)cc1 (centres undefined)
Second: CC(=O)OCC1OC(n2c(Cl)nc3c(Br)c(Br)ccc32)C(OC(C)=O)C1OC(C)=O (centres undefined)
The melting point of the first is higher: 194 °C for the first, 129 to 130 °C for the second.

Compared with CONc1nc(N)nc2c1ncn2[C@@H]1C[C@H](CO)[C@@H](O)[C@H]1O, Cc1ccc(-c2ccc(NN)nn2)c(OCC(O)CNC(C)(C)C)c1 (centres undefined) is higher in melting point: 106 to 110 °C for the first, 145 to 155 °C for the second.

In the case of CC(OC1CCCCO1)C1CCC2C3CC=C4CC(O)CC(O)C4(C)C3CCC12C (centres undefined), the melting point is reported as 122 to 124 °C.
